Measurements from ChEMBL document CHEMBL5055668 (J Med Chem, 2021).
Active and inactive are the calls of the source. The calls are words filed in the database; no cut-off is given here.

How the values were obtained:
BMDM = experiment: Induction of conversion of M2-macrophages to the M1 phenotype in CM of MC38 cells treated C57BL/6 mouse BMDM cells assessed as down regulation of Il10 mRNA expression at 30 to 100 nM preincubated with culture medium of MC38 cells for 24 hrs followed by compound addition and measured after 24 hrs by qPCR analysis; assay type: functional, cell-based; settings: dose 30-100 nM
Mus musculus = experiment: Toxicity in C57BL/6 mouse allografted with mouse MC38 cells assessed as kidney damage at 5 to 20 mg/kg, po administered every day for 2 weeks by histopathological analysis; assay type: organism-based, MC-38; settings: in vivo, 336 h, dose 5-20 mg/kg
MC-38 [1] = experiment: Antitumor activity against mouse MC38 cells allografted in C57BL6 mouse assessed as increase in Nos2 mRNA expression at 10 to 20 mg/kg, po administered daily for 2 weeks by qPCR analysis; assay type: functional, organism-based; settings: dose 10-20 mg/kg
MC-38 [2] = experiment: Antitumor activity against mouse MC38 cells allografted in C57BL6 mouse assessed as reduction in CSF-1R phosphorylation in tumor tissue at 5 to 10 mg/kg, po administered daily for 2 weeks by Western blot analysis; assay type: functional, organism-based; settings: dose 5-10 mg/kg
MC-38 [3] = experiment: Antitumor activity against mouse MC38 cells allografted in C57BL6 mouse assessed as decrease in Retnla mRNA expression at 10 to 20 mg/kg, po administered daily for 2 weeks by qPCR analysis; assay type: functional, organism-based; settings: dose 10-20 mg/kg
THP-1 = experiment: Induction of conversion of M2-macrophages to the M1 phenotype in CM of HCT116 cells treated […]-differentiated human THP-1 cells assessed as upregulation of Tnf mRNA expression at 30 to 100 nM incubated for 24 hrs by qPCR analysis; assay type: functional, cell-based; settings: dose 30-100 nM
MC-38 [4] = experiment: Antitumor activity against mouse MC38 cells allografted in C57BL6 mouse assessed as increase in Il12 mRNA expression at 10 to 20 mg/kg, po administered daily for 2 weeks by qPCR analysis; assay type: functional, organism-based; settings: dose 10-20 mg/kg
[5] = molecular target: T1, Macrophage colony-stimulating factor 1 receptor (Mus musculus) (UniProt P09581); experiment: Inhibition of CSF-1R signaling pathway in C57BL/6 mouse BMDM cells assessed as reduction in M-CSF induced CSF-1R phosphorylation at 100 nM preincubated for 12 hrs followed by M-CSF stimulation for 30 mins by Western blot analysis; assay type: cell-based
T1 sequence (whole entry): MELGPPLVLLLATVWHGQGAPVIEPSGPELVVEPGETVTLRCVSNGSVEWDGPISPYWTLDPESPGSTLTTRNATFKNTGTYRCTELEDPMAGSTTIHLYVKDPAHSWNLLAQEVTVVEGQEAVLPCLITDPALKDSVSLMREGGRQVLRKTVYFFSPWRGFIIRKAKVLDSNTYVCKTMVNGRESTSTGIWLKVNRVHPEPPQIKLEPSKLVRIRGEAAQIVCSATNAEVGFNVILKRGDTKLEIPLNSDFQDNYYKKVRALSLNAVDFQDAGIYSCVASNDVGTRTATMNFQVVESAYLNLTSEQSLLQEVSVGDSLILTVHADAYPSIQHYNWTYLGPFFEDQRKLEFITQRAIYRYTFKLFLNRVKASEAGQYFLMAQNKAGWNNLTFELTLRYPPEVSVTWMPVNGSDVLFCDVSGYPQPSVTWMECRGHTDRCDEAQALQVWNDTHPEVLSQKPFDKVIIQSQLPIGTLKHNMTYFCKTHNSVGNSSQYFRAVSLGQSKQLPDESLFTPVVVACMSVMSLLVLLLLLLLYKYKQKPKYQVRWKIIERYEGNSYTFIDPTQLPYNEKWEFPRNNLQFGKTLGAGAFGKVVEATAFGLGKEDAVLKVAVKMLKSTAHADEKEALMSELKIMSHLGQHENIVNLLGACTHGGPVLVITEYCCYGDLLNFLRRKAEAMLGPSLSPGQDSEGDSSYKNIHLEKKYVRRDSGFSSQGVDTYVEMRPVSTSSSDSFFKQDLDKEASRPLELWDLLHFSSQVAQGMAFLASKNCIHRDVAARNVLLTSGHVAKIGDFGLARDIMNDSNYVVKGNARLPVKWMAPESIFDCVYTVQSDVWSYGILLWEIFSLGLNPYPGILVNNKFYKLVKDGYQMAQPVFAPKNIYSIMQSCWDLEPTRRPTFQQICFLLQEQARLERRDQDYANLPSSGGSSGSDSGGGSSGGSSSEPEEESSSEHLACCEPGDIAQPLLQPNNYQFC

HCT-116 = experiment: Antitumor activity against human HCT-116 cells xenografted in nude BALB/c mouse assessed as tumor growth inhibition at 5 to 20 mg/kg, po administered daily for 2 weeks; assay type: functional, organism-based; settings: dose 5-20 mg/kg
MC-38 [6] = experiment: Induction of conversion of M2-macrophages to the M1 phenotype in CM of MC38 cells treated C57BL/6 mouse BMDM cells transfected with CSF1R shRNA2 assessed as decrease in Nos2 mRNA expression measured after 24 hrs by qPCR analysis; assay type: functional, cell-based

**Q.** For `Cc1[nH]c(/C=C2\C(=O)Nc3cc(NC(=O)Nc4cc(C(C)(C)C)on4)ccc32)c(C)c1NC(=O)CN1CCN(C)CC1`, which Activity (BMDM) is on record?
**A.** Its Activity is “Active”.

**Q.** What about the Activity (Mus musculus) of the same compound?
**A.** The Activity was “Non-Toxic”.

**Q.** What about the Activity (MC-38 [1]) of the same compound?
**A.** Its Activity is “Active”.

**Q.** And the Activity (MC-38 [2])?
**A.** Its Activity is “Active”.

**Q.** What about the Activity (MC-38 [3]) of the same compound?
**A.** The Activity was “Active”.

**Q.** And the Activity (THP-1)?
**A.** Its Activity is “Active”.

**Q.** And the Activity (MC-38 [4])?
**A.** Its Activity is “Active”.

**Q.** And the inhibition [5]?
**A.** Its inhibition is “Active”.

**Q.** And the Activity (HCT-116)?
**A.** The Activity was “inactive”.

**Q.** What about the Activity (MC-38 [6]) of the same compound?
**A.** Its Activity is “Active”.
